Data published in patent US9125939B2, “Carbostyril derivatives and mood stabilizers for treating mood disorders” (Otsuka Pharmaceutical Co., Ltd., priority 2003, dated 2015).

Assays:
[1] = test system: acute mania in adolescents with bipolar disorder; assay: double-blind, randomized, placebo-controlled study as adjunctive treatment to divalproex for adolescent mania (Examples 7 and 8); format: in vivo, human
[2] = test system: acute manic or mixed bipolar episodes; details: cotherapy vs monotherapy
[3] = DVP + about 10 mg/day, 6 weeks, vs DVP+placebo

**Q.** Which YMRS response rate [1, 3] does the source give for `O=C1CCc2ccc(OCCCCN3CCN(c4cccc(Cl)c4Cl)CC3)cc2N1` [aripiprazole, 7-{4-[4-(2,3-dichlorophenyl)-1-piperazinyl]butoxy}-3,4-dihydro-2(1H)-quinolinone] here?
**A.** Its YMRS response rate is “significantly greater”.

**Q.** And the “reduction in YMRS scores from baseline to endpoint” value [1, 3]?
**A.** The value was “greater reduction”.

**Q.** And the “Sedation, rated as mild or moderate” value ([1]; DVP combination vs DVP+placebo)?
**A.** Its value is “more common”.

**Q.** And the “safety measures, group differences from baseline to endpoint” value ([1]; DVP combination vs DVP+placebo)?
**A.** Its value is “No significant group differences”.

**Q.** And the “tolerability in combination with DVP” value ([1]; treatment of mania)?
**A.** Its value is “well tolerated”.

**Q.** And the HAMD-21 total scores [2]?
**A.** Its HAMD-21 total scores is “total scores more than monotherapy”.
